Tests used:
LecA [1] = target: T1, LecA (Pseudomonas aeruginosa, UniProt Q05097); assay: Surface plasmon resonance direct LecA binding assay (immobilized LecA); set-up: species or system P. aeruginosa
T1 construct: made in house; host or cells: E. coli (plasmid pET25-pail)
Source text: Therefore, we measured the LecA affinity of thiol derivatives 17, 18, 24 and 25 and disulfides 26a, 26b and 27 using surface plasmon resonance (SPR) with LecA covalently immobilized on a sensor chip via amide coupling (Fig. 5 and Table 1). […] Thiols 17, 18, 24 and 25 reached equilibrium binding within 60 s of interaction with immobilized LecA, followed by their dissociation with moderate off-rates. […] Due to the very small off-rates for 26a, 26b and 27, these values have been calculated based on the response at […] of the injected compound and monitoring their dissociation for 30 min (Fig. S2 ^†). The observed very tight binding to immobilized LecA required optimization of the protein surface regeneration procedure. Effective conditions were identified as one injection of 50 mm isopropyl β-D-thiogalactoside in the running buffer, followed by one injection of 20 mm EDTA disodium salt in water. The regenerated chip surface was controlled using an injection of 1 to ensure that the activity of LecA was maintained.
Surface plasmon resonance direct LecA binding assay
SPR experiments were performed on a Reichert 2-channel SPR SR7500DC (Reichert Technologies Life Sciences, Buffalo, NY, USA) at 25 °C. For LecA immobilization, the surface of a HC1000M sensor chip (XanTec bioanalytics GmbH, Düsseldorf, Germany) was preequilibrated with borate buffer (1 M NaCl, 0.1 M sodium borate pH 9.0), followed by activation of the polycarboxylate hydrogel with 0.2 M N-hydroxysuccinimide (NHS) and 0.4 M 1-ethyl-3-(3-dimethylaminopropyl)carbodiimide hydrochloride (EDC‧HCl) in MilliQ water in both channels for 240 s (flow rate 10 μL/min) until the binding response reached 1200 RU.
Then, LecA (100 μg/mL) in 10 mM sodium acetate pH 3.6 was injected on the activated chip surface of one channel (injection time 420 s, flow rate 10 μL/min) and 6000 RU of LecA were immobilized. Unreacted NHS esters in both channels were blocked with 1 M ethanolamine hydrochloride in MilliQ water pH 8.5 (injection time 360 s, flow rate 10 μL/min).
Test compound stock solutions were prepared in DMSO (20 mM stocks for monovalent LecA inhibitors, 20 µM stocks for divalent LecA inhibitors) and were subsequently diluted in 10 mM phosphate buffer (pH 7.4, 2.7 mM KCl, 137 mM NaCl, 100 μM CaCl2) to obtain solutions with […]
Monovalent inhibitors 17, 18, 24 and 25 were injected for 120 s (flow rate 50 μL/min) at concentrations ranging from 0.39–100 µM. Divalent inhibitors 26a, 26b and 27 were injected for 120 s (flow rate 50 μL/min) at concentrations 50–350 nM. The chip surface was regenerated after each inhibitor injection by one injection of 50 mM IPTG in running buffer (10 mM phosphate buffer, pH 7.4, 2.7 mM KCl, 137 mM NaCl, 100 μM CaCl2, 2% DMSO) followed by one injection 20 mM EDTA disodium salt in MilliQ water, and then followed by three injections of the running buffer (injection time 120 s, flow rate 50 μL/min). 100 µM pNP-Gal (1) in running buffer was injected before each analyte to monitor and ensure chip regeneration and […]
Affinity/equilibrium analysis was performed for 1 on the same chip. A stock solution of 1 (10 mM in PBS/CaCl2 buffer) was prepared, then diluted to the required concentrations in running buffer and injected at 1.56–400 µM (injection time 60 s, flow rate 50 μL/min) without regeneration steps. Data analysis was performed using TraceDrawer software (Ridgeview Instruments) using a 1:1 binding model to fit the experimental data. Spikes at the end of the injections were removed in TraceDrawer during the data analysis.

LecA [2] = target: T1, LecA; assay: Competitive binding assay for LecA based on fluorescence polarization; set-up: species or system P. aeruginosa
Procedure: The four thiols 17, 18, 24 and 25 as well as three disulfides 26a, 26b and 27 were then evaluated for their activity against LecA using a competitive binding assay based on fluorescence polarization (Fig. 4B). […]
Expression and purification of LasB and LecA
LecA was expressed recombinantly using E. coli pET25-pail, whereas LasB was isolated from P. aeruginosa PA14 culture supernatant as described previously. 1,2
LecA labeling with fluorescein was performed in analogy to Sommer et al. 3 and Beshr et al.4 To this end fluorescein isothiocyanate (FITC) was freshly dissolved in carbonate-bicarbonate buffer with pH of 9.3 at a concentration of 3 mg mL-1. Subsequently, 66 µL of this FITC solution was combined with 1.4 mL of LecA at a concentration of 60 µM in carbonate-bicarbonate buffer, pH 9.3. The resulting mixture was then incubated at 25 °C with shaking at 500 rpm for 1 hour. Then, extensive washing with PBS/Ca2+ in a 5 kDa molecular weight cutoff centrifugal concentrator was performed to remove excess dye and buffer the labelled protein. […]
Competitive binding assay for LecA
The procedure for the fluorescence polarization-based competitive binding assay for LecA was performed as reported by Joachim et al. with modifications. 1 The assay was performed in TBS/Ca2+ buffer (20 mM Tris, 137 mM NaCl, 2.6 mM KCl at pH 7.4 supplemented with 1 mM CaCl 2 and contained 5% DMSO). The final protein concentration in the assay was 5 µM for LecA. Fluorescence intensities were recorded on a PheraStar FS plate reader (BMG Labtech GmbH, Germany) and polarization was calculated using MARS Data Analysis (BMG Labtech).
IC50 values were obtained from a four-parameter curve-fitting procedure. Averages and standard deviations were calculated from at least three independent experiments of technical

Kinetic solubility = assay type: physicochemical; conditions: aqueous buffer, kinetic from dmso stock; 10 mm PBS with 2% DMSO at 37 °C

T1 sequence (Q05097 whole entry): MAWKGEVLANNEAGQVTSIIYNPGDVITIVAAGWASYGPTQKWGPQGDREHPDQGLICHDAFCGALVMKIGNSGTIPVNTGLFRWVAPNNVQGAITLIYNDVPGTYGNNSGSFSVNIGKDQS

For `CC(C)CC(SSC(CC(C)C)C(=O)Nc1ccc(S[C@@H]2O[C@H](CO)[C@H](O)[C@H](O)[C@H]2O)cc1)C(=O)Nc1ccc(S[C@@H]2O[C@H](CO)[C@H](O)[C@H](O)[C@H]2O)cc1` (some centres unmarked) [Compound 27], the Kd (LecA [1]) was 4.5 ± 0.4 nM, the k a (LecA [1]; SPR, immobilized LecA) was 5.2 ± 0.6 ×10^4 M^−1 s^−1 and the k d (LecA [1]; SPR, immobilized LecA) was 2.2 ± 0.3 ×10^−4 s^−1. It also gave an IC50 (LecA [2]) of 5700 nM and a solubility kinetic (Kinetic solubility) of over 600 µM.

Source: article PMC11339798, “Dual inhibitors of Pseudomonas aeruginosa virulence factors LecA and LasB” (Chemical Science, 2024)
